Measured values reported in US6537990B1, “Combined preparations comprising morpholine anthracyclines and anticancer agent” (priority 1999, dated 2003).
Where “and” joins values, the source holds several entries; their conditions need not be identical. Equal entries are not always repeated. Structures can show the parent of a compound that is named as a salt. Where two headings read alike, the source gives them in different places.

Tests used:
[1] = test system: disseminated L1210 murine leukemia; experiment: Antileukemic activity against disseminated L1210 murine leukemia; format: in vivo, CD2F1 mice
[2] = test system: tumor cells resistant to L-PAM, cisplatin (cDDP), CTX or Topoisomerase II inhibitors; conditions: cited from earlier work
[3] = in vivo; cited from earlier work
[4] = test system: tumor cells resistant to anthracyclines and presenting the mdr phenotype; conditions: in vitro and in vivo; cited from earlier work

| SMILES | ILS % (Increased in Life Span) ([1]; PNU-152243 alone, 0.05 mg/Kg/day iv, days +1, 2) | Tox (Number of toxic deaths/number of mice) ([1]; PNU-152243 alone, 0.05 mg/Kg/day iv, days +1, 2, HCl, 0.05 mg/kg/day) | Tox (Number of toxic deaths/number of mice) ([1]; PNU-152243 alone, 0.05 mg/Kg/day iv, days +1, 2, listed as PNU 152243, HCl, 0.05 mg/kg/day) | Cross-resistance on resistant tumor cells ([2]; tumor cells resistant to L-PAM or cisplatin (cDDP), or to Topoisomerase II inhibitors (at-multidrug resistant)) | Optimal i.v. dose, fold less than that of doxorubicin [3] | Activity on tumor cells resistant to anthracyclines and presenting the mdr phenotype [4] | Cross-resistance on resistant tumor cells ([2]; tumor cells resistant to CTX, L-Pam and cDDP) | ILS % (Increased in Life Span) ([1]; cDDP alone, 5.9 mg/Kg/day iv, day +3) | Tox (Number of toxic deaths/number of mice) ([1]; cDDP alone, 5.9 mg/Kg/day iv, day +3, 5.9 mg/kg/day) | ILS % (Increased in Life Span) ([1]; cDDP alone, 7.7 mg/Kg/day iv, day +3) | Tox (Number of toxic deaths/number of mice) ([1]; cDDP alone, 7.7 mg/Kg/day iv, day +3, 7.7 mg/kg/day) |
| --- | --- | --- | --- | --- | --- | --- | --- | --- | --- | --- | --- |
| COc1cccc2c1C(=O)c1c(O)c3c(c(O)c1C2=O)C[C@@](O)(C(=O)CO)C[C@@H]3O[C@H]1C[C@H](N2CCO[C@H](OC)C2)[C@H](O)[C@H](C)O1 [PNU-152243, 3′deamino-3′(2-methoxy-4-morpholinyl)doxorubicin. HCl] | 50% | 0/10 | without toxicity | No cross-resistance | at least 80 fold | active |  |  |  |  |  |
| CCC1(O)CC(OC2CC(N3CCOCC3)C(O)C(C)O2)c2c(O)c3c(c(O)c2C1O)C(=O)c1cccc(O)c1C3=O (stereo not drawn) [MX2, 3′-deamino-3′(4-morpholinyl)-13-deoxo-10-hydroxy-carminomycin] |  |  |  |  |  | active | No cross-resistance |  |  |  |  |
| [NH2][Pt]([NH2])([Cl])[Cl] [cDDP, cisplatin] |  |  |  |  |  |  |  | 33% | without toxicity and 0/10 | 33% | without toxicity and 0/10 |
